Measurements: patent publication US20070197629A1, “Indole derivative and application thereof” (priority 2004, published 2007)
Where two headings read alike, the source gives them in different places.

Legend:
osteoclasts [1] = assay: Assay of influences on osteoclasts: tartaric acid-resistant acid phosphatase (TRAP) activity in cultured goldfish scales; type: cell-based; settings: for TRAP activity, amount of paranitrophenol produced: scales cultured at 15° C. for 6 hours, control 3.43 ± 0.04
Source text: In accordance with the method described in N. Suzuki and A. Hattori, J. Pineal Res., 33, 253-258, 2002, influences of an indole derivative on bone cells were inspected.
A female goldfish (body weight: about 30 g) was put under anesthesia with MS222 (ethyl 3-aminobenzoate, methane sulfonic acid salt) (Aldrich), and a desired number of scales were peeled off. The scales were washed twice in Eagle's minimum essential medium (ICN Biomedicals Inc.) comprising 1% antibiotics (a mixture of penicillin and streptomycin). Medium of the same type was introduced into each well of a 24-well plate in amounts of 1 ml, several scales were introduced to each well (8 scales in general), and 10^−4, 10^−6, and 10^−8 M indole derivatives were applied to separate wells. Subsequently, the scales were cultured at 15° C. for 6 hours. Also, a group to which no indole derivative had been added was prepared (a control group), and influences thereof on osteoclasts and osteoblasts were compared. Two control groups, i.e., a group for inspecting osteoclasts and a group for inspecting osteoblasts, were provided. Specifically, a total of 8 wells were provided for the control and 10^−4, 10^−6, and 10^−8 M indole derivatives (2 wells for each thereof). Accordingly, 3 types of indole derivatives can be inspected with the use of a 24-well plate.
After the culture, medium was removed, 0.05 M cacodylate buffer (pH 7.4) containing 10% formalin was added, and the scales were immobilized. The scales were stored in 0.05 M cacodylate buffer at 4° C. until the measurement of enzyme activity was initiated.
2-Bromomelatonin (a compound represented by formula (I) wherein X represents a bromine atom; R^1 represents a hydrogen atom; R^2 represents methyl; R^3, R^5 and R^6 each represent a hydrogen atom; and R^4 represents methyl), which was subjected to the test, was a known compound, and it was synthesized by the method described in M. Somei, Y. Fukui, M. Hasegawa, N. Oshikiri, and T. Hayashi, Heterocycles, 53, 1725-1736, 2000. • (1) Assay of Influences Imposed on Osteoclasts, i.e., Assay of Tartaric Acid-Resistant Acid Phosphatase (TRAP) Activity
The immobilized scales were removed from the plate, and the weights thereof were measured. Thereafter, the scales were introduced into a 96-well microplate, 200 μl of 100 mM acetate buffer containing 20 mM tartaric acid and 10 mM paranitrophenol phosphate (substrate) was introduced to each well, reaction was allowed to proceed at 25° C. for 1 hour, and an aqueous solution of 2N sodium hydroxide (50 μl) was then added in order to terminate the reaction. The solution after the reaction (150 μl) was transferred to the other microplate, and the amount of paranitrophenol (pNP) generated by TRAP was measured using a spectrophotometer (405 nm). The osteoclast activity was indicated in terms of the amount of paranitrophenol phosphate decomposed and that of pNP produced within 1 hour per mg of the scales.

osteoblasts [2] = assay: Assay of influences on osteoblasts: alkaline phosphatase (ALP) activity in cultured goldfish scales; type: cell-based; settings: for ALP activity, amount of paranitrophenol produced: scales cultured at 15° C. for 6 hours, control 6.00-6.17 (per table)
Source text: In accordance with the method described in N. Suzuki and A. Hattori, J. Pineal Res., 33, 253-258, 2002, influences of an indole derivative on bone cells were inspected. A female goldfish (body weight: about 30 g) was put under anesthesia with MS222 (ethyl 3-aminobenzoate, methane sulfonic acid salt) (Aldrich), and a desired number of scales were peeled off. The scales were washed twice in Eagle's minimum essential medium (ICN Biomedicals Inc.) comprising 1% antibiotics (a mixture of penicillin and streptomycin). Medium of the same type was introduced into each well of a 24-well plate in amounts of 1 ml, several scales were introduced to each well (8 scales in general), and 10^−4, 10^−6, and 10^−8 M indole derivatives were applied to separate wells. Subsequently, the scales were cultured at 15° C. for 6 hours. Also, a group to which no indole derivative had been added was prepared (a control group), and influences thereof on osteoclasts and osteoblasts were compared. Two control groups, i.e., a group for inspecting osteoclasts and a group for inspecting osteoblasts, were provided. Specifically, a total of 8 wells were provided for the control and 10^−4, 10^−6, and 10^−8 M indole derivatives (2 wells for each thereof). Accordingly, 3 types of indole derivatives can be inspected with the use of a 24-well plate. After the culture, medium was removed, 0.05 M cacodylate buffer (pH 7.4) containing 10% formalin was added, and the scales were immobilized. The scales were stored in 0.05 M cacodylate buffer at 4° C. until the measurement of enzyme activity was initiated. • (2) Assay of Influences Imposed on Osteoblasts, i.e., Assay of Alkaline Phosphatase (ALP) Activity The immobilized scales were removed from the plate, and the weights thereof were measured. Thereafter, the scales were introduced into a 96-well microplate, 200 μl of 100 mM tris-HCl buffer (pH 9.5) comprising 10 mM paranitrophenol phosphate (substrate), 1 mM magnesium chloride, and 0.1 mM zinc chloride was introduced into each well, the reaction was allowed to proceed at 25° C. for 1 hour, and an aqueous solution of 2N sodium hydroxide (50 μl) was added thereto in order to terminate the reaction. Thereafter, 150 μl of the solution after the reaction was transferred to the other microplate, and the amount of pNP generated by ALP was measured using a spectrophotometer (405 nm) to determine the activity.

osteoblasts [3] = settings: reported in N. Suzuki and A. Hattori, J. Pineal Res., 33, 253-258, 2002; cited from earlier work
osteoclasts [4] = settings: reported in N. Suzuki and A. Hattori, J. Pineal Res., 33, 253-258, 2002; cited from earlier work

SMILES	melting point [°C]	Influence on osteoclasts (in words) (osteoclasts [1]; summary of FIG. 1A, 1B, Table 1)	Influence on osteoblasts (in words) (osteoblasts [2]; summary of FIG. 2A, 2B, Tables 2A to 2G)	TRAP activity, amount of paranitrophenol produced (osteoclasts [1]; indole derivative 10^−4 M)	TRAP activity, amount of paranitrophenol produced (osteoclasts [1]; indole derivative 10^−6 M)	TRAP activity, amount of paranitrophenol produced (osteoclasts [1]; indole derivative 10^−8 M)	ALP activity, amount of paranitrophenol produced (osteoblasts [2]; indole derivative 10^−4 M)	ALP activity, amount of paranitrophenol produced (osteoblasts [2]; indole derivative 10^−6 M)	ALP activity, amount of paranitrophenol produced (osteoblasts [2]; indole derivative 10^−8 M)	Influence on osteoblasts (in words) (osteoblasts [3])	Influence on osteoclasts (in words) (osteoclasts [4])
COc1ccc2[nH]c(Br)c(CCNC(C)=O)c2c1 [2-Bromomelatonin]				2.83 ± 0.23 nmol/mg of scales/hr	2.62 ± 0.17 nmol/mg of scales/hr	3.02 ± 0.23 nmol/mg of scales/hr	5.72 ± 0.47 nmol/mg of scales/hr	6.03 ± 0.66 nmol/mg of scales/hr	7.41 ± 0.35 nmol/mg of scales/hr		
COc1c(Br)c(Br)c2[nH]c(Br)c(CCNC(C)=O)c2c1Br [2,4,6,7-Tetrabromomelatonin, 2,4,6,7-tetrabromomelatonin]				2.71 ± 0.17 nmol/mg of scales/hr	2.83 ± 0.16 nmol/mg of scales/hr	3.19 ± 0.14 nmol/mg of scales/hr	6.12 ± 0.41 nmol/mg of scales/hr	6.12 ± 0.50 nmol/mg of scales/hr	7.90 ± 0.73 nmol/mg of scales/hr		
C#CCn1c(Br)c(CCNC(C)=O)c2c(Br)c(OC)c(Br)cc21 [2,4,6-Tribromo-1-propargylmelatonin, N-acetyl-2,4,6-tribromo-5-methoxy-1-propargylindole-3-ethanamine]				2.78 ± 0.13 nmol/mg of scales/hr	2.82 ± 0.15 nmol/mg of scales/hr	2.78 ± 0.15 nmol/mg of scales/hr	7.55 ± 0.76 nmol/mg of scales/hr	8.66 ± 0.47 nmol/mg of scales/hr	7.07 ± 0.75 nmol/mg of scales/hr		
COc1ccc2[nH]cc(CCNC(C)=O)c2c1 [Melatonin, N-acetyl-5-methoxytryptamine, reference compound]		suppressively acts	suppressively acts	2.67 ± 0.11 nmol/mg of scales/hr	2.69 ± 0.15 nmol/mg of scales/hr	2.91 ± 0.13 nmol/mg of scales/hr	5.19 ± 0.36 nmol/mg of scales/hr	5.42 ± 0.25 nmol/mg of scales/hr	5.45 ± 0.27 nmol/mg of scales/hr	act suppressively	act suppressively
COc1c(Br)cc2[nH]c(Br)c(CCNC(C)=O)c2c1Br [2,4,6-Tribromomelatonin, N-acetyl-2,4,6-tribromo-5-methoxyindole-3-ethanamine]				2.93 ± 0.18 nmol/mg of scales/hr	2.87 ± 0.13 nmol/mg of scales/hr	2.88 ± 0.08 nmol/mg of scales/hr	6.00 ± 0.38 nmol/mg of scales/hr	6.61 ± 0.38 nmol/mg of scales/hr	7.58 ± 0.70 nmol/mg of scales/hr		

The next lines start with results.

melting point [°C]	Influence on osteoclasts (in words) (osteoclasts [1]; summary of FIG. 1A, 1B, Table 1)	Influence on osteoblasts (in words) (osteoblasts [2]; summary of FIG. 2A, 2B, Tables 2A to 2G)	SMILES	TRAP activity, amount of paranitrophenol produced (osteoclasts [1]; indole derivative 10^−4 M)	TRAP activity, amount of paranitrophenol produced (osteoclasts [1]; indole derivative 10^−6 M)	TRAP activity, amount of paranitrophenol produced (osteoclasts [1]; indole derivative 10^−8 M)	ALP activity, amount of paranitrophenol produced (osteoblasts [2]; indole derivative 10^−4 M)	ALP activity, amount of paranitrophenol produced (osteoblasts [2]; indole derivative 10^−6 M)	ALP activity, amount of paranitrophenol produced (osteoblasts [2]; indole derivative 10^−8 M)	Influence on osteoblasts (in words) (osteoblasts [3])	Influence on osteoclasts (in words) (osteoclasts [4])
218 to 219			COc1c(Br)cc2c(c1Br)c(CCNC(C)=O)c(Br)n2Cc1ccccc1 [1-Benzyl-2,4,6-tribromomelatonin, N-acetyl-1-benzyl-2,4,6-tribromo-5-methoxyindole-3-ethanamine]	2.59 ± 0.24 nmol/mg of scales/hr	2.83 ± 0.20 nmol/mg of scales/hr	2.85 ± 0.20 nmol/mg of scales/hr	7.77 ± 0.37 nmol/mg of scales/hr	7.92 ± 0.55 nmol/mg of scales/hr	8.44 ± 1.00 nmol/mg of scales/hr		
215 to 216			COc1c(Br)cc2c(c1Br)c(CCNC(C)=O)c(Br)n2S(=O)(=O)c1ccc(C)cc1 [2,4,6-tribromo-1-tosyl-melatonin, N-acetyl-2,4,6-tribromo-5-methoxy 1-tosylindole-3-ethanamine]								
142 to 143			C=CCn1c(Br)c(CCNC(C)=O)c2c(Br)c(OC)c(Br)cc21 [1-Allyl-2,4,6-tribromomelatonin, N-acetyl-1-allyl-2,4,6-tribromo-5-methoxyindole-3-ethanamine]	2.87 ± 0.10 nmol/mg of scales/hr	2.89 ± 0.12 nmol/mg of scales/hr	2.99 ± 0.13 nmol/mg of scales/hr	6.44 ± 0.44 nmol/mg of scales/hr	6.79 ± 0.63 nmol/mg of scales/hr	8.30 ± 0.68 nmol/mg of scales/hr		
